According to US20250313556A1, “CERTAIN CHEMICAL ENTITIES, COMPOSITIONS, AND METHODS” (MRJA THERAPEUTICS, INC., priority 2022, published 2025):

Biological target: c-KIT (Homo sapiens, UniProt P10721)
Assay: c-KIT ADP-Glo biochemical assay
Details: class ranges
Experimental: The inhibitory activity against c-KIT was measured using ADP-Glo assay. The percent (%) inhibition at each concentration of compound is calculated based on and relative to the luminescence signal in the Max and Min control wells contained within each assay plate. The Max control wells contain enzyme and substrate as 0% inhibition, and the Min control wells only contain substrate without enzyme as 100% inhibition. The concentrations and % inhibition values for tested compounds are plotted and the concentration of compound required for 50% inhibition (IC50) is determined with a four-parameter logistic dose response equation. The ability of the compounds in Table 1 to inhibit c-KIT was determined.

Sequence of c-KIT (P10721 26-976): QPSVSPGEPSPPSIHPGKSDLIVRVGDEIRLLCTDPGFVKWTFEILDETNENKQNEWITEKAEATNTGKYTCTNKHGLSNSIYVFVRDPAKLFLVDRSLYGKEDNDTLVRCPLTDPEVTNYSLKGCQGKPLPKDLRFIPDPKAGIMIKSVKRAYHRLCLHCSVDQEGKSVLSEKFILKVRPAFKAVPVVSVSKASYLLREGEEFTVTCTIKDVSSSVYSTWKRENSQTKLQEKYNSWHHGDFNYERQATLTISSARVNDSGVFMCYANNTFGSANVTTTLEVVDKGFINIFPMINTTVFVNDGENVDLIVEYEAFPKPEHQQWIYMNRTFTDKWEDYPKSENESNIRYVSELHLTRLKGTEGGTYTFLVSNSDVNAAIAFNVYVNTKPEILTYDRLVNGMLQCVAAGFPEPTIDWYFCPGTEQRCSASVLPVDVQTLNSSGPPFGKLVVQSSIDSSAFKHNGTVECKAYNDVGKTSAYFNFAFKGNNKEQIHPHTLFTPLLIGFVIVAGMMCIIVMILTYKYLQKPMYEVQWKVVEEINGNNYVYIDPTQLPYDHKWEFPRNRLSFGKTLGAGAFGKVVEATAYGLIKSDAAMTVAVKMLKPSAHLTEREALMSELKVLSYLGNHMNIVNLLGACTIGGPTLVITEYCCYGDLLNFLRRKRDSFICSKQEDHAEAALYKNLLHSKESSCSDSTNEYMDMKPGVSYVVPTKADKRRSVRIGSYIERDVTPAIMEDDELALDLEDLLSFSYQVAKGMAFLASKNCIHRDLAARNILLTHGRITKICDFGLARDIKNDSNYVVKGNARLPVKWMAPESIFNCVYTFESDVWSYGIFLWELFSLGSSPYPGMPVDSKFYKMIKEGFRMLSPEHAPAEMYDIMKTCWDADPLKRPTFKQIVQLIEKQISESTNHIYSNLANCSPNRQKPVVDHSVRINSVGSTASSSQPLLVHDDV

Row | SMILES | IC50
1 | COC(=O)N1CC(c2nc(-c3cc(F)c(C)c(NC(=O)c4cnc5ccc(C(N)=O)cn45)c3)no2)C1 [Compound C040, methyl 3-(3-(3-(6-carbamoylimidazo[1,2-a]pyridine-3-carboxamido)-5-fluoro-4-methylphenyl)-1,2,4-oxadiazol-5-yl)azetidine-1-carboxylate] | ≤ 0.1 µM
2 | Cc1c(F)cc(-c2noc(C3CN(C(=O)OCCN)C3)n2)cc1NC(=O)c1cnc2ccccn12 [Compound C041, 2-aminoethyl 3-(3-(3-fluoro-5-(imidazo[1,2-a]pyridine-3-carboxamido)-4-methylphenyl)-1,2,4-oxadiazol-5-yl)azetidine-1-carboxylate] | ≤ 0.1 µM
3 | COCCOC(=O)N1CC(c2nc(-c3cc(F)c(C)c(NC(=O)c4cnc5ccccn45)c3)no2)C1 [Compound C042, 2-methoxyethyl 3-(3-(3-fluoro-5-(imidazo[1,2-a]pyridine-3-carboxamido)-4-methylphenyl)-1,2,4-oxadiazol-5-yl)azetidine-1-carboxylate] | 0.1 to 1 µM
4 | COC(=O)N1CC(c2nc(-c3cc(F)c(C)c(NC(=O)c4cnc5cc(C(N)=O)ccn45)c3)no2)C1 [Compound C043, methyl 3-(3-(3-(7-carbamoylimidazo[1,2-a]pyridine-3-carboxamido)-5-fluoro-4-methylphenyl)-1,2,4-oxadiazol-5-yl)azetidine-1-carboxylate] | ≤ 0.1 µM
5 | COC(=O)N1CC(c2nc(-c3cc(F)c(C)c(NC(=O)c4cnc5ccccn45)c3)co2)C1 [Compound C045, methyl 3-(4-(3-fluoro-5-(imidazo[1,2-a]pyridine-3-carboxamido)-4-methylphenyl)oxazol-2-yl)azetidine-1-carboxylate] | 0.1 to 1 µM
6 | COC(=O)N1CC(c2ncc(-c3cc(F)c(C)c(NC(=O)c4cnc5ccccn45)c3)o2)C1 [Compound C046, methyl 3-(5-(3-fluoro-5-(imidazo[1,2-a]pyridine-3-carboxamido)-4-methylphenyl)oxazol-2-yl)azetidine-1-carboxylate] | 1 to 20 µM
7 | COC(=O)N1CCC[C@@H](c2nc(-c3cc(F)c(C)c(NC(=O)c4cnc5ccccn45)c3)no2)C1 [Compound C049, methyl (R)-3-(3-(3-fluoro-5-(imidazo[1,2-a]pyridine-3-carboxamido)-4-methylphenyl)-1,2,4-oxadiazol-5-yl)piperidine-1-carboxylate] | 0.1 to 1 µM
8 | COC(=O)N1CC(c2nc(-c3cc(F)c(C)c(NC(=O)c4cnc5ccccn45)c3F)no2)C1 [Compound C052, methyl 3-(3-(2,5-difluoro-3-(imidazo[1,2-a]pyridine-3-carboxamido)-4-methylphenyl)-1,2,4-oxadiazol-5-yl)azetidine-1-carboxylate] | ≤ 0.1 µM
9 | COC(=O)N1CC[C@@H](c2nc(-c3cc(F)c(C)c(NC(=O)c4cnc5ccccn45)c3F)no2)C1 [Compound C053, methyl (R)-3-(3-(2,5-difluoro-3-(imidazo[1,2-a]pyridine-3-carboxamido)-4-methylphenyl)-1,2,4-oxadiazol-5-yl)pyrrolidine-1-carboxylate] | 1 to 20 µM
10 | COC(=O)N1CCC[C@@H](c2nc(-c3cc(F)c(C)c(NC(=O)c4cnc5ccccn45)c3F)no2)C1 [Compound C054, methyl (R)-3-(3-(2,5-difluoro-3-(imidazo[1,2-a]pyridine-3-carboxamido)-4-methylphenyl)-1,2,4-oxadiazol-5-yl)piperidine-1-carboxylate] | 0.1 to 1 µM

More lines, now with the values ahead:

Row | IC50 | SMILES
11 | 1 to 20 µM | COC(=O)N1CC(c2nnc(-c3cc(F)c(C)c(NC(=O)c4cnc5ccccn45)c3)o2)C1 [Compound C044, methyl 3-(5-(3-fluoro-5-(imidazo[1,2-a]pyridine-3-carboxamido)-4-methylphenyl)-1,3,4-oxadiazol-2-yl)azetidine-1-carboxylate]
12 | 0.1 to 1 µM | COC(=O)N1CC(c2coc(-c3cc(F)c(C)c(NC(=O)c4cnc5ccccn45)c3)n2)C1 [Compound C047, methyl 3-(2-(3-fluoro-5-(imidazo[1,2-a]pyridine-3-carboxamido)-4-methylphenyl)oxazol-4-yl)azetidine-1-carboxylate]
13 | 0.1 to 1 µM | COC(=O)N1CC(c2nnc(-c3cc(F)c(C)c(NC(=O)c4cnc5ccccn45)c3)[nH]2)C1 [Compound C048, methyl 3-(5-(3-fluoro-5-(imidazo[1,2-a]pyridine-3-carboxamido)-4-methylphenyl)-4H-1,2,4-triazol-3-yl)azetidine-1-carboxylate]
14 | 0.1 to 1 µM | Cc1c(F)cc(-c2noc([C@@H]3C[C@H]3F)n2)cc1NC(=O)c1cnc2cc(N3CCOCC3)ccn12 [Compound C050, N-(3-fluoro-5-(5-((1S,2R)-2-fluorocyclopropyl)-1,2,4-oxadiazol-3-yl)-2-methylphenyl)-7-morpholinoimidazo[1,2-a]pyridine-3-carboxamide]
15 | 1 to 20 µM | COC(=O)N1CC(c2cnc(-c3cc(F)c(C)c(NC(=O)c4cnc5ccccn45)c3)o2)C1 [Compound C051, methyl 3-(2-(3-fluoro-5-(imidazo[1,2-a]pyridine-3-carboxamido)-4-methylphenyl)oxazol-5-yl)azetidine-1-carboxylate]
16 | 0.1 to 1 µM | COC(=O)N1CC[C@H](c2nc(-c3cc(F)c(C)c(NC(=O)c4cnc5ccccn45)c3F)no2)C1 [Compound C055, methyl (S)-3-(3-(2,5-difluoro-3-(imidazo[1,2-a]pyridine-3-carboxamido)-4-methylphenyl)-1,2,4-oxadiazol-5-yl)pyrrolidine-1-carboxylate]
17 | 0.1 to 1 µM | COC(=O)N1CCC[C@H](c2nc(-c3cc(F)c(C)c(NC(=O)c4cnc5ccccn45)c3F)no2)C1 [Compound C056, methyl (S)-3-(3-(2,5-difluoro-3-(imidazo[1,2-a]pyridine-3-carboxamido)-4-methylphenyl)-1,2,4-oxadiazol-5-yl)piperidine-1-carboxylate]

Same assay, conditions: comparison of prior art compounds (WO 2013/033167) with example 3 (C003)

Row | IC50 | SMILES
18 | 4.95 µM | COC(=O)N1CC(c2nc(-c3cc(NC(=O)c4cnc5ccccn45)c(C)cc3F)no2)C1 [methyl 3-(3-(2-fluoro-5-(imidazo[1,2-a]pyridine-3-carboxamido)-4-methylphenyl)-1,2,4-oxadiazol-5-yl)azetidine-1-carboxylate, reference compound]
19 | 0.172 µM | COC(=O)N1CC(c2nc(-c3ccc(C)c(NC(=O)c4cnc5ccccn45)c3)no2)C1 [methyl 3-(3-(3-(imidazo[1,2-a]pyridine-3-carboxamido)-4-methylphenyl)-1,2,4-oxadiazol-5-yl)azetidine-1-carboxylate, reference compound]
